Measurements reported in patent US11584744B2 (UNIVERSITY OF WASHINGTON, priority 2017, dated 2023).
Converted amounts (≈) assume the structure as drawn. Read-outs that look alike come from different tables or passages of the source.

Key:
[1] = test system: E. faecium VRE (ATCC 51559); test: MIC susceptibility testing; type: cell-based, Enterococcus faecium; settings: for MIC: Enterococcus faecium
Summary of the method: (§1)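 CLSI broth microdilution with two-fold compound dilutions, in triplicate; cells added in medium at 1×10^6 CFUs/mL, DMSO ≤0.5%. Media: MHB for S. aureus, CA-MHB for E. coli and E. faecium, CA-MHB plus 3% laked horse blood for S. pyogenes (5% CO2).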

E. faecium (ATCC 19434) = test: MIC susceptibility testing; type: cell-based; settings: Enterococcus faecium, ATCC19434; read-out: E. faecium (ATCC 19434) MIC
Summary of the method: as §1

E. faecalis (ATCC 29212) = test: MIC susceptibility testing; type: cell-based; settings: Enterococcus faecalis, ATCC29212; read-out: E. faecalis (ATCC 29212) MIC
[2] = test system: S. epidermidis (ATCC 12228); test: MIC susceptibility testing; type: cell-based; settings: Staphylococcus epidermidis, ATCC12228; read-out: S. epidermidis (ATCC 12228) MIC
S. pyogenes (ATCC 19615) = test: MIC susceptibility testing; type: cell-based; settings: Streptococcus pyogenes
[3] = test system: S. epidermidis (ATCC 49134); test: MIC susceptibility testing; type: cell-based; settings: Staphylococcus epidermidis, ATCC49134; read-out: S. epidermidis (ATCC 49134) MIC
[4] = molecular target: recombinant S. aureus MetRS enzyme (Staphylococcus aureus, UniProt A0A0H2XID2); test: Inhibition of SaMetRS, ATP depletion assay; type: biochemical
Chain of recombinant S. aureus MetRS enzyme (A0A0H2XID2 2-657): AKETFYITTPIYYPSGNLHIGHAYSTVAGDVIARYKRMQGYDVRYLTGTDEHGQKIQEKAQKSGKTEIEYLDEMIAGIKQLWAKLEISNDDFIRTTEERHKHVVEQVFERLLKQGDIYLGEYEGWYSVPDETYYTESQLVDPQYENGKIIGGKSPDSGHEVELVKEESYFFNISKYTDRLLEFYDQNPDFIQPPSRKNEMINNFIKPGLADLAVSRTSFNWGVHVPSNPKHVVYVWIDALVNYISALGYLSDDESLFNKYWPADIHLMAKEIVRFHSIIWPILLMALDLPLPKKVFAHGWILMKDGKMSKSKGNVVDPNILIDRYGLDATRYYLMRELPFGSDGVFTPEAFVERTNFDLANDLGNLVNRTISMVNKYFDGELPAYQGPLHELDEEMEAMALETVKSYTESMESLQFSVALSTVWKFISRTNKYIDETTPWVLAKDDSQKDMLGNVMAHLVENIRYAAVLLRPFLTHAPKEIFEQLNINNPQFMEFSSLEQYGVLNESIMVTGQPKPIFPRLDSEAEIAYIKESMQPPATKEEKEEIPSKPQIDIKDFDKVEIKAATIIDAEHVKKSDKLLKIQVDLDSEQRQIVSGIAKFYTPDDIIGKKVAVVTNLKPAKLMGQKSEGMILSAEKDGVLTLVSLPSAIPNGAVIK
Summary of the method: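 IC50 values come from sigmoidal fits of percent inhibition, based on ATP left after 120 min as measured by Kinase-Glo. Substrates were 20 μM L-methionine and 150 nM ATP, added after compounds sat 15 min at room temperature with 25 nM His-tagged SaMetRS, bulk E. coli tRNA, pH 7.9 HEPES buffer and 2% DMSO.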

[5] = test system: S. aureus MSSA (ATCC 29213); test: MIC susceptibility testing; type: cell-based, Staphylococcus aureus; settings: for MIC: Staphylococcus aureus
[6] = test system: S. aureus MRSA (ATCC 33591); test: MIC susceptibility testing; type: cell-based, Staphylococcus aureus; settings: for MIC: Staphylococcus aureus
Summary of the method: as §1

[7] = Cytotoxicity testing on mammalian cells (AlamarBlue, 48 hours); type: cell-based; settings: human
Experimental: Cytotoxicity testing on mammalian cells: Compounds were assayed for cytotoxicity against CRL-8155 (human lymphoblasts) and HepG2 cells (human hepatocellular carcinoma). Cells were exposed to serial dilutions of compounds for 48 hours and toxicity was quantified using AlamarBlue (ThermoFisher Scientific, Waltham, Mass.). Assays were performed in quadruplicate and EC50 values were calculated with non-linear regression methods using software by the Collaborative Drug Database (Burlingame, Calif. www.collaborativedrug.com)

[8] = Liver microsome stability; type: in vitro ADME
Experimental: Microsome stability. Liver microsome stability assays were done by contract research laboratory, Wuxi AppTec Co. (Hubei, China). Briefly, compounds at 1 μM concentration were incubated in singlet with human or CD-1 mouse liver microsomes for 6 time points (0, 5, 10, 20, 30, and 60 min). Loss of parent compound was quantified by liquid chromatography/tandem mass spectrometry.

[9] = read-out: E. faecium VRE (ATCC 51559) MIC
[10] = ATCC19615, 18 h, medium with 3% laked horse blood, read-out: S. pyogenes (ATCC 19615) MIC
[11] = recombinant enzyme, lower limit of detection 0.025 μM, read-out: MetRS S. aureus (enzyme) IC50
[12] = 18 h, read-out: S. aureus MSSA (ATCC 29213) MIC
[13] = read-out: S. aureus MRSA (ATCC 33591) MIC
[14] = CRL-8155 cells (human lymphoblasts), read-out: Mamm. cells (CRL8155) CC50
[15] = HepG2 cells (human hepatocellular carcinoma), read-out: Mamm. cells (HepG2) CC50
[16] = human, human liver microsomes, read-out: Microsome stability: Human T½
[17] = mouse liver microsomes, CD-1 mouse, read-out: Microsome stability: Mouse T½
[18] = read-out: (B) MetRS (S. aureus) IC50
[19] = E. faecium ATCC 51559, read-out: (I) E. faecium (ATCC 51559) MIC
[20] = ATCC19615, S. pyogenes ATCC 19615, read-out: (H) S. pyogenes (ATCC 19615) MIC
[21] = MRSA ATCC33591, read-out: (G) MRSA (ATCC33591) MIC

## Fc1ccc2nc(NCCCNCc3cc(Cl)cc(Cl)c3)[nH]c2n1 [Compound 1614, [(3,5-dichlorophenyl)methyl][3-({5-fluoro-3H-imidazo[4,5-b]pyridin-2-yl}amino)propyl]amine]
[1]; [9]
  MIC: 0.625 µg/mL (≈ 1.7 µM)
E. faecium (ATCC 19434)
  MIC: 0.625 µg/mL (≈ 1.7 µM)
E. faecalis (ATCC 29212)
  MIC: 1.25 µg/mL (≈ 3.39 µM)
[2]
  MIC: 5 µg/mL (≈ 13.6 µM)
S. pyogenes (ATCC 19615); [10]
  MIC: > 10 µg/mL
[3]
  MIC: 10 µg/mL (≈ 27.2 µM)
[4]; [11]
  IC50: < 25 nM
[5]; [12]
  MIC: 2.5 µg/mL (≈ 6.79 µM)
[6]; [13]
  MIC: 5 µg/mL (≈ 13.6 µM)
[7]; [14]
  CC50 at 48 h: 14.8 µg/mL (≈ 40.2 µM)
[7]; [15]
  CC50 at 48 h: > 18.4 µg/mL
[8]; [16]
  half-life at 1 μM: 9.8 min
[8]; [17]
  half-life at 1 μM: 6.6 min

## Fc1ccc2nc(NCCCN[C@@H]3CCNc4c(Cl)cc(Cl)cc43)[nH]c2n1 [Compound 1717, (4R)-6,8-dichloro—N-[3-({5-fluoro-3H-imidazo[4,5-b]pyridin-2-yl}amino)propyl]-1,2,3,4-tetrahydroquinolin-4-amine, reference compound]
[1]; [9]
  MIC: 0.156 µg/mL (≈ 0.381 µM)
E. faecium (ATCC 19434)
  MIC: 0.039 µg/mL (≈ 0.0953 µM)
E. faecalis (ATCC 29212)
  MIC: 0.078 µg/mL (≈ 0.191 µM)
[2]
  MIC: 0.156 µg/mL (≈ 0.381 µM)
S. pyogenes (ATCC 19615); [10]
  MIC: 2.5 µg/mL (≈ 6.11 µM)
[3]
  MIC: 0.313 µg/mL (≈ 0.765 µM)
[4]; [11]
  IC50: < 25 nM
[5]; [12]
  MIC: 0.156 µg/mL (≈ 0.381 µM)
[5]; read-out: MIC against S. aureus
  MIC: 0.156 µg/mL (≈ 0.381 µM)
[6]; [13]
  MIC: 0.078 µg/mL (≈ 0.191 µM)
[7]; [14]
  CC50 at 48 h: 5.8 µg/mL (≈ 14.2 µM)
[7]; [15]
  CC50 at 48 h: 10.4 µg/mL (≈ 25.4 µM)
[8]; [16]
  half-life at 1 μM: 10.3 min
[8]; [17]
  half-life at 1 μM: 10.3 min

## CCn1c(Cc2ccc(Cl)cc2Cl)cn(Cc2nc3nc(F)ccc3[nH]2)c1=O [Compound 2062, 4-[(2,4-dichlorophenyl)methyl]-3-ethyl-1-({5-fluoro-1H-imidazo[4,5-b]pyridin-2-yl}methyl)-2,3-dihydro-1H-imidazol-2-one]
[1]; [9]
  MIC: 0.313 µg/mL (≈ 0.745 µM)
E. faecium (ATCC 19434)
  MIC: 0.313 µg/mL (≈ 0.745 µM)
E. faecalis (ATCC 29212)
  MIC: 1.25 µg/mL (≈ 2.97 µM)
[3]
  MIC: 1.25 µg/mL (≈ 2.97 µM)
[4]; [18]
  IC50: < 25 nM
[4]; [11]
  IC50: < 25 nM
[5]; [12]
  MIC: 0.078 µg/mL (≈ 0.186 µM)
[7]; [14]
  CC50 at 48 h: > 21 µg/mL
[7]; [15]
  CC50 at 48 h: > 21 µg/mL
[8]; [16]
  half-life at 1 μM: 12.6 min
[8]; [17]
  half-life at 1 μM: 8.4 min

## CCn1c(Cc2ccc(OC)cc2Cl)cn(Cc2nc3nc(Cl)ccc3[nH]2)c1=O [Compound 2093, 1-({5-chloro-1H-imidazo[4,5-b]pyridin-2-yl}methyl)-4-[(2-chloro-4-methoxyphenyl)methyl]-3-ethyl-2,3-dihydro-1H-imidazol-2-one]
[1]; E. faecium ATCC 51559
  (I) E. faecium (ATCC 51559) MIC: 0.0387 µg/mL
[1]; [19]
  MIC: 0.0507 µg/mL (≈ 0.117 µM)
[1]; [9]
  MIC: 0.078 µg/mL (≈ 0.18 µM)
E. faecium (ATCC 19434)
  MIC: 0.078 µg/mL (≈ 0.18 µM)
E. faecalis (ATCC 29212)
  MIC: 0.156 µg/mL (≈ 0.361 µM)
[2]
  MIC: 0.625 µg/mL (≈ 1.45 µM)
S. pyogenes (ATCC 19615); [10]
  MIC: 1.25 µg/mL (≈ 2.89 µM)
S. pyogenes (ATCC 19615); [20]
  MIC: 0.678 µg/mL (≈ 1.57 µM)
[3]
  MIC: 1.25 µg/mL (≈ 2.89 µM)
[4]; [18]
  IC50: < 25 nM
[4]; [11]
  IC50: < 25 nM
[5]; [12]
  MIC: 0.039 µg/mL (≈ 0.0902 µM)
[6]; MRSA ATCC33591
  (G) MRSA (ATCC33591) MIC: 0.225 µg/mL
[6]; [21]
  MIC: 0.123 µg/mL (≈ 0.285 µM)
[6]; [13]
  MIC: 0.313 µg/mL (≈ 0.724 µM)
[7]; [14]
  CC50 at 48 h: > 21.6 µg/mL
[7]; [15]
  CC50 at 48 h: > 21.6 µg/mL
[8]; [16]
  half-life at 1 μM: 8.3 min
[8]; [17]
  half-life at 1 μM: 3.2 min

## CCn1c(Cc2ccc(OC)cc2Cl)cn(Cc2nc3nc(F)ccc3[nH]2)c1=O [Compound 2114, 4-[(2-chloro-4-methoxyphenyl)methyl]-3-ethyl-1-({5-fluoro-1H-imidazo[4,5-b]pyridin-2-yl}methyl)-2,3-dihydro-1H-imidazol-2-one]
[1]; [9]
  MIC: 0.156 µg/mL (≈ 0.375 µM)
E. faecium (ATCC 19434)
  MIC: 0.078 µg/mL (≈ 0.188 µM)
E. faecalis (ATCC 29212)
  MIC: 0.625 µg/mL (≈ 1.5 µM)
[2]
  MIC: 1.25 µg/mL (≈ 3.01 µM)
S. pyogenes (ATCC 19615); [20]
  MIC: 0.754 µg/mL (≈ 1.81 µM)
[3]
  MIC: 1.25 µg/mL (≈ 3.01 µM)
[4]; [18]
  IC50: < 25 nM
[4]; [11]
  IC50: < 25 nM
[5]; S. aureus ATCC 29213
  (F) S. aureus (ATCC 29213) MIC: 0.192 µg/mL
[5]; [12]
  MIC: 0.313 µg/mL (≈ 0.753 µM)
[5]; S. aureus ATCC 29213, read-out: (F) S. aureus (ATCC 29213) MIC
  MIC: 0.129 µg/mL (≈ 0.31 µM)
[6]; [21]
  MIC: 1.53 µg/mL (≈ 3.68 µM)
[7]; [14]
  CC50 at 48 h: > 20.8 µg/mL
[7]; [15]
  CC50 at 48 h: > 20.8 µg/mL
[8]; [16]
  half-life at 1 μM: 15.2 min
[8]; [17]
  half-life at 1 μM: 7.7 min

## COc1cc(Cl)c(-c2cccc3nc(Cc4nc5nc(Cl)ccc5[nH]4)cn23)cc1OC [Compound 2144, 2-({5-chloro-1H-imidazo[4,5-b]pyridin-2-yl}methyl)-5-(2-chloro-4,5-dimethoxyphenyl)imidazo[1,2-a]pyridine]
[1]; E. faecium ATCC 51559
  (I) E. faecium (ATCC 51559) MIC: 0.0140, μg/ml
[1]; [19]
  MIC: 0.0126 µg/mL (≈ 0.0277 µM)
[1]; [9]
  MIC: 0.0195 µg/mL (≈ 0.0429 µM)
E. faecium (ATCC 19434)
  MIC: 0.0195 µg/mL (≈ 0.0429 µM)
E. faecalis (ATCC 29212)
  MIC: 0.0195 µg/mL (≈ 0.0429 µM)
[2]
  MIC: 0.156 µg/mL (≈ 0.343 µM)
S. pyogenes (ATCC 19615); [10]
  MIC: 1.25 µg/mL (≈ 2.75 µM)
[3]
  MIC: 0.313 µg/mL (≈ 0.689 µM)
[4]; [18]
  IC50: < 25 nM
[4]; [11]
  IC50: < 25 nM
[5]; [12]
  MIC: 0.0195 µg/mL (≈ 0.0429 µM)
[6]; MRSA ATCC33591
  (G) MRSA (ATCC33591) MIC: 0.0216, μg/mL
[6]; [21]
  MIC: 0.033 µg/mL (≈ 0.0726 µM)
[6]; [13]
  MIC: 0.039 µg/mL (≈ 0.0858 µM)
[7]; [14]
  CC50 at 48 h: > 11.3 µg/mL
[7]; [15]
  CC50 at 48 h: > 11.3 µg/mL
[8]; [16]
  half-life at 1 μM: 16.4 min
[8]; [17]
  half-life at 1 μM: 6.5 min

## CC(=O)NC[C@H]1CN(c2ccc(N3CCOCC3)c(F)c2)C(=O)O1 [LNZ, linezolid]
[1]; [9]
  MIC: 1.25 µg/mL (≈ 3.71 µM)
E. faecium (ATCC 19434)
  MIC: 2.5 µg/mL (≈ 7.41 µM)
E. faecalis (ATCC 29212)
  MIC: 2.5 µg/mL (≈ 7.41 µM)
[2]
  MIC: 0.625 µg/mL (≈ 1.85 µM)
S. pyogenes (ATCC 19615); [10]
  MIC: 1.25 µg/mL (≈ 3.71 µM)
[3]
  MIC: 0.625 µg/mL (≈ 1.85 µM)
[4]; [11]
  IC50: > 10000 nM
[5]; [12]
  MIC: 2.5 µg/mL (≈ 7.41 µM)
[6]; [13]
  MIC: 1.25 µg/mL (≈ 3.71 µM)
[7]; [14]
  CC50 at 48 h: > 33.7 µg/mL
[7]; [15]
  CC50 at 48 h: > 33.7 µg/mL
